Our source for the TGI and GI50 values is PubChem BioAssay (NCI).

Molecules are shown by their SMILES. Several values for one entry are separate records, joined by “and”; a condition that tells them apart may be missing. Identical values can stand only once.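 Exposure lasted 48 hours, with cells grown in 96-well plates and compounds tested at five concentrations. GI50: concentration for 50% inhibition of growth. TGI marks complete inhibition of growth.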

Common to all, as to assay: DTP human tumour cell line panel, 48 h
Experiment [1] has as its system K-562 leukemia.
For experiment [2], the system named is MALME-3M melanoma.
The subject of experiment [3] is UACC-257 melanoma.
Experiment [4] has as its system EKVX NSCLC.
The subject of experiment [5] is RPMI-8226 leukemia.
The subject of experiment [6] is COLO 205 colon.
Experiment [7] deals with HOP-62 NSCLC.
Experiment [8] concerns HS 578T breast.
In experiment [9] the test system is MDA-MB-231 breast.
Experiment [10] relates to T-47D breast.

Turning to `N/C=N/S(=O)(=O)c1ccc(NC(=O)COC(=O)c2cccc3c(=O)c4ccccc4[nH]c23)cc1`, the TGI in experiment [1], in experiment [2], in [3], in experiment [4], in experiment [5] and in [6] was over 100 µM throughout. Also, the TGI in experiment [7] is over 100 µM.

Take `CCc1ccccc1NC(=O)C(=O)C(C#N)c1ccccc1Cl` (configuration not stated): the TGI in experiment [2], in experiment [3], in experiment [4], in [5], in experiment [6] and in experiment [7] was over 100 µM throughout.

For `O=C(Cc1ccccc1[N+](=O)[O-])C(CO)c1ccccc1[N+](=O)[O-]` (configuration not stated), the TGI in experiment [1], in experiment [2], in experiment [3], in [4], in experiment [5] and in experiment [6] was over 100 µM each time. This compound yielded a total growth inhibition concentration (TGI) in [7] of over 100 µM.

Regarding `O=C(C=Nc1ccccc1C(=O)[O-])c1cccs1.O=C(C=Nc1ccccc1C(=O)[O-])c1cccs1.[Ni+2]`, the concentration for total growth inhibition (TGI) in experiment [1], in [2], in experiment [3], in experiment [6] and in experiment [7] was over 100 µM throughout.

With `COC(=O)C1CSC(c2csc(CCN)n2)=N1` (configuration not stated), the TGI in [1], in experiment [2], in [3], in experiment [4], in [5] and in experiment [6] was over 100 µM each time.

On to `Cc1ccc([P+](Cc2ccccc2)(c2ccccc2)c2ccccc2)cc1`, for which the GI50 in [1] was 1.26 µM; in [8], 3.19 µM; in experiment [3] it was 0.98 µM; in experiment [5] it was 0.6 µM; in experiment [9], 2.17 µM; in [7] it was 4.25 µM. Further, the concentration for total growth inhibition (TGI) in [1] is over 100 µM; in experiment [8], 83.4 µM; in [3] it was 4.8 µM; in experiment [5], 6.63 µM; in [9], 19.2 µM; in [7] it was over 100 µM.

Consider `COC(=O)Cc1c([C@@]2(C)CCCC(C)(C)C2)ccc2c1C(=O)OC2`, for which the TGI in experiment [1] was found to be 19.4 µM; in experiment [2] it was 38 µM; in experiment [3], 22.8 µM; in experiment [4] it was 59.7 µM; in experiment [5] it was 14.6 µM; in experiment [6], 26.4 µM.

Take `Nc1nc(N)c(CCCCc2ccccc2)c(C=O)n1`: the total growth inhibition concentration (TGI) is 24.3 µM in experiment [1]; 36.3 µM in experiment [2]; 33.3 µM in experiment [3]; 46.4 µM in experiment [4]; 41.2 µM in experiment [5]; over 100 µM in [6]. Moreover, in [7], the total growth inhibition concentration (TGI) is over 100 µM.

Consider `NC1N=Nc2ccccc21` (configuration not stated), for which the concentration for total growth inhibition (TGI) in [1], in experiment [2], in experiment [3], in experiment [4], in [5] and in [6] was over 100 µM in each case. The total growth inhibition concentration (TGI) in [7] is over 100 µM.

On to `COc1cc2c(c(O)c1Cl)C(=O)c1c(O)cc(C[C@H](C)O)cc1[C@H]2[C@H]1c2cc(C[C@H](C)O)cc(O)c2C(=O)c2c1cc(OC)c(Cl)c2O`, for which the TGI in experiment [1] was 75 µM and > 100 µM; in [2], 5.27 µM and 47.3 µM; in experiment [8], 75 µM and 64.9 µM; in experiment [4], 75 µM and 90.9 µM; in experiment [5], 75 µM and 74.4 µM.

In the case of `COc1cccc(C=O)c1C(=O)c1cc(O)ccc1O`, the TGI is 37.5 µM in experiment [2]; 46.3 µM in experiment [3]; 37.9 µM in [4]; 34.1 µM in experiment [6]; over 100 µM in [7].

As to `O=C1C(=c2ccc(=C3C(=O)c4ccc([N+](=O)[O-])cc4[N+]3=O)cc2)N([O-])c2cc([N+](=O)[O-])ccc21`, the GI50 in experiment [1], in [2], in [3], in [4] and in experiment [6] was over 100 µM in each case. Moreover, the TGI in [1], in [2], in experiment [3], in [4], in [6] and in experiment [7] was over 100 µM throughout.

With `O=C(CCC(=O)Nc1ccc(Cl)c(Cl)c1)CC(=O)c1ccc2ccccc2c1`, the total growth inhibition concentration (TGI) in experiment [1], in [2], in [3], in [4], in [5] and in [7] was over 100 µM in each case.

`O=[N+]([O-])c1cc(-c2nc(=S)[nH][nH]2)ccc1O`: the TGI is over 100 µM in [1]; over 100 µM in experiment [2]; over 100 µM in [3]; over 100 µM in experiment [4]; 35.9 µM in [6]; over 100 µM in experiment [7].

In the case of `[O-]/N=[N+](/[O-])C1CCCCC1=[N+]1CCOCC1` (configuration not stated), the TGI in experiment [1], in experiment [2], in [3], in [4], in [5] and in experiment [6] was over 100 µM throughout. The compound also showed a TGI in experiment [7] of over 100 µM.

Take `OCC1OC2c3ccccc3COC2C1OCc1ccccc1` (configuration not stated): the concentration for total growth inhibition (TGI) in experiment [1], in experiment [2], in experiment [3], in experiment [4], in [5] and in [6] was over 100 µM each time.

As to `O=C(O)CN(c1ccccc1)S(=O)(=O)c1cccc([N+](=O)[O-])c1`, the total growth inhibition concentration (TGI) in [1], in experiment [2], in experiment [3], in experiment [4], in [5] and in [6] was over 100 µM each time.

As for `CC1(C)NC(=O)N(CCCCCCN2C(=O)NC(C)(C)C2=O)C1=O`, the TGI in experiment [1], in [2], in experiment [3], in experiment [4], in experiment [5] and in experiment [6] was over 100 µM throughout.

As to `COc1cc2c(cc1OC)C(C#N)N(C(=O)c1ccccc1)C=C2OC(=O)c1ccccc1` (configuration not stated), the concentration for total growth inhibition (TGI) was over 100 µM in experiment [1]; 50.2 µM in experiment [2]; 53 µM in experiment [3]; 71.9 µM in experiment [4]; over 100 µM in [5]; over 100 µM in experiment [6]. The same compound gave a concentration for total growth inhibition (TGI) in experiment [7] of 35.2 µM.

`C/C(CCn1[nH]c(=O)ccc1=O)=N\NC(=O)C(N)=O`: the TGI in experiment [1], in [2], in experiment [3], in [4], in [6] and in [7] was over 100 µM each time.

As to `COc1cc2c3c(n(CCCN(CCCN(CCCn4c5c(c6ccccc6c4=O)C(=O)c4ccccc4-5)C(=O)OC(C)(C)C)C(=O)OC(C)(C)C)c(=O)c2cc1OC)-c1cc2c(cc1C3=O)OCO2`, the GI50 was over 100 µM in [1]; over 100 µM in experiment [2]; over 100 µM in [3]; 11.8 µM in experiment [4]; over 100 µM in experiment [5]; over 100 µM in experiment [10]. The GI50 is over 100 µM in experiment [6], 28.5 µM in [9] and over 100 µM in experiment [7]. Moreover, the total growth inhibition concentration (TGI) in experiment [1] was over 100 µM; in experiment [2], over 100 µM; in experiment [3], over 100 µM; in experiment [4], 34 µM; in [5], over 100 µM; in [10], over 100 µM. Also, the total growth inhibition concentration (TGI) in experiment [6], in experiment [9] and in experiment [7] was over 100 µM in each case.

Turning to `N#CCCN(CCC#N)c1ccc(/C=C(/NC(=O)c2cc([N+](=O)[O-])ccc2Cl)C(=O)NN)cc1`, the concentration for total growth inhibition (TGI) in [1], in [2], in experiment [3], in experiment [4], in experiment [5] and in experiment [6] was over 100 µM each time. This compound also showed a TGI in [7] of over 100 µM.

Take `O=C(NC(=Nc1ccccc1)SCSC(=Nc1ccccc1)NC(=O)c1ccco1)c1ccco1`: the total growth inhibition concentration (TGI) in experiment [1], in [2], in experiment [3], in [4], in [5] and in experiment [6] was over 100 µM in each case. In experiment [7], this compound gave a TGI of 44.9 µM.

Regarding `c1ccc2c(c1)SC(=C1Sc3ccccc3S1)S2`, the TGI in [1], in experiment [2], in [4], in [6] and in experiment [7] was over 100 µM each time.

As for `O=C(COc1ccccc1Cl)N1N=C(c2ccccc2)CC1(O)c1ccccc1` (configuration not stated), the concentration for total growth inhibition (TGI) in experiment [1] turned out to be 54.9 µM; in experiment [2], 31.7 µM; in experiment [3] it was 45.2 µM; in experiment [5], 32.9 µM; in experiment [6] it was 33.9 µM; in experiment [7], 28.5 µM.
